Measured values from publication PMC2346451 (PLoS ONE, 2008).

How the values were obtained:
rat TRPV2 (rTRPV2) = molecular target: T1, rat TRPV2 (rTRPV2) (Rattus norvegicus, UniProt Q9WUD2); assay: Whole-cell patch clamp of rat TRPV2 expressed in HEK-293T cells; type: cell-based; parameters: key to Agonist efficacy: Ø - not activated; conditions: for Increase of agonist-evoked current prior to onset of inhibition: citral 1 mM, n = 10
T1 construct: expressed in transfected cells; host or cells: HEK-293T
T1 sequence (Q9WUD2 1-761): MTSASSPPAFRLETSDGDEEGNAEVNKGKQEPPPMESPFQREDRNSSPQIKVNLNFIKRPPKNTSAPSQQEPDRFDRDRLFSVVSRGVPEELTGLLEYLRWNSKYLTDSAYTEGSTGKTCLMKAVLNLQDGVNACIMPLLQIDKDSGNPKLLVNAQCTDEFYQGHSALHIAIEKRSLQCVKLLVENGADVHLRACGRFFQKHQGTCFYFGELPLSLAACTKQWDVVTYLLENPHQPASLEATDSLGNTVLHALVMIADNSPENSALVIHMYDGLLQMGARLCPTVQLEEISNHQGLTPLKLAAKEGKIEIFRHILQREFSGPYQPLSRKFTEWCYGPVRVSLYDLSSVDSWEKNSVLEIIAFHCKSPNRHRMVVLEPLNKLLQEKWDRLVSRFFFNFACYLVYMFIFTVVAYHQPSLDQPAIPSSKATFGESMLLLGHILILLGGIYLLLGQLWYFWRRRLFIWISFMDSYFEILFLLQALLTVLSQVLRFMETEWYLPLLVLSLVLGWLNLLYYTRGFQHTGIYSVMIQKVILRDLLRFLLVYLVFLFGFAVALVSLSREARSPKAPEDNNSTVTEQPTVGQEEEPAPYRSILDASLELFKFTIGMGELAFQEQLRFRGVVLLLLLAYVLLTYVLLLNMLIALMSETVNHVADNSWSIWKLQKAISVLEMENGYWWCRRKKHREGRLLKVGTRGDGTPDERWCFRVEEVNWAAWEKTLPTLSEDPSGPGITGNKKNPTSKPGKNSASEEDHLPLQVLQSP
Protocol: Transformed human embryonic kidney-293 (HEK-293T) cells were grown in Dulbecco's modified Eagle's medium (DMEM)+F-12 supplemented with 10% fetal calf serum, and 1% penicillin/streptomycin in 5% CO2 at 37°C. Cells grown to 90% confluence in 35 mm Petri dishes were transiently transfected with plasmid DNA encoding a TRP channel construct (1 µg). Rat TRPV1 (rTRPV1) was cloned into an enhanced green fluorescent protein-containing vector (pTracer-CMV2; Invitrogen, Carlsbad, CA). Chicken TRPV1 (cTRPV1), the chicken rat TRPV1 chimera (crcTRPV1), rat TRPV2 (rTRPV2), mouse TRPV3 (mTRPV3), mouse TRPV4 (mTRPV4), rat TRPM8 (rTRPM8), and rat TRPA1 (rTRPA1), were cloned into pcDNA3 and co-transfected with enhanced green fluorescent protein (0.1 µg) to follow expression. The cTRPV1 and crcTRPV1 clones were kindly provided by Dr. David Julius. Recordings were carried out 24–36 hours after transfection. Cells were split via trypsin EDTA, plated on glass coverslips at 5–10% confluence, and used 2–3 hours later.
Electrophysiological experiments were performed using the whole-cell patch-clamp technique at room temperature. Modified Ringer's solution with low chloride and nominal calcium contained (in mM): 130 sodium hydroxide, 5 potassium chloride, 1 magnesium chloride, 10 sodium 4-(2-hydroxyethyl)-1-piperazineethanesulfonic acid, 10 2-(N-morpholino)ethanesulfonic acid, and 20 glucose (pH 7.4; 310 milli-osmolar). […] 2 mM calcium chloride was included in the external solution where noted. To activate TRPV1, the modified Ringer's solution was made at pH 5 (low pH solution) and the chloride concentration was kept to a minimum to prevent contamination of the TRPV1 currents with acid-activated chloride currents. For recordings from heterologously expressing cells, the internal pipette solution contained (in mM): 125 cesium-Methanesulfonate, 10 cesium (1.2-bis(o-aminophenoxy)ethane-N,N,N',N'-tetraacetic acid, 8 sodium chloride, 4 magnesium adenosine triphosphate, and 10 HEPES (pH 7.2; 290 mOSM; nominal free calcium concentrations). For TRPA1 and dorsal root ganglion recordings, the internal pipette solution contained (in mM): 110 cesium-Methanesulfonate, 0.5 cesium4BAPTA, 8 sodium chloride, 0.2 calcium chloride, 4 magnesium-ATP, 4 sodium-GTP, and 10 4-(2-hydroxyethyl)-1-piperazineethanesulfonic acid (pH 7.2; 290 mOSM; 100 nM free calcium internal). MaxChelator was used to calculate the free calcium concentration (http://www.stanford.edu/cpatton/maxc.html).
Recordings were obtained using an Axopatch 200B amplifier, Digidata 1322A analog-to-digital converter, and pClamp 8.01 software (Molecular Devices, Union City, CA). Data were low-pass filtered at 2 kHz and digitized at 5 kHz. Borosilicate glass pipettes (World Precision Instruments, Sarasota, FL) were typically 3 MΩ pipette resistance after fire polishing. Cell capacitance was measured for each cell, and access resistance compensated to ∼80%. Recordings were begun ∼5 minutes after initial rupture to ensure initial steady state conditions. Current-voltage (I-V) relations were obtained using a ramp protocol. Voltage ramps (400 ms) from −100 to +40 or +100 mV were applied every 1–2 seconds and the holding potential was either −70 mV or 0 mV (see Figure Legends). A 40 ms step was added at the beginning and end of the ramp (i.e. at −100 mV, +40 mV or +100 mV). Liquid junction potentials were not corrected.
The dose response curves were fit with the Hill equation, where [drawing 8] and [A] is the concentration of agonist or blocker, N is the Hill coefficient, and KD is the [A] for Imeasured/Imax = 0.5. The term apparent dissociation constant is used in place of the half concentration of excitation and inhibition. […] Averaged data are presented as mean±standard error (S.E.) throughout. Statistical analysis included paired and unpaired Student's t-test comparisons of the data; p values are reported in the text.

[1] = in humans; cited from earlier work

## CC(C)=CCCC(C)=CC=O [citral, 3,7-dimethyl-2,6-octadienal]
Rat TRPV2 (rTRPV2)
  Agonist efficacy: Ø
  Reversibility of citral inhibition of agonist-evoked current: essentially irreversible
Rat TRPV2 (rTRPV2); +100 mV
  Increase of agonist-evoked current prior to onset of inhibition: 2.2±0.2 fold
Rat TRPV2 (rTRPV2); −100 mV
  Increase of agonist-evoked current prior to onset of inhibition: 2.5±0.4 fold
Rat TRPV2 (rTRPV2); citral block of 2-aminoethyldiphenyl borate-evoked current
  Hill coefficient (inhibition): 2.4
Rat TRPV2 (rTRPV2); read-out: Inhibition KD, app
  Kd: 534 µM
[1]
  Concentration at which therapeutic effects have been attributed: 1 to 100 µM
